Laboratory results from patent US9193689B2, “3-aryl-5-substituted-isoquinolin-1-one compounds and their therapeutic use” (INSTITUTE OF CANCER RESEARCH: ROYAL CANCER HOSPITAL (THE), priority 2012, dated 2015).

Assays:
TNKS1 = TNKS1 (Homo sapiens, UniProt O95271); experiment: TNKS1/PARP Biochemical Assay (TNKS1)
[1] = test system: Axin1 protein levels in DLD1 cells; experiment: Western Blotting for Direct and Downstream Targets of TNKS Inhibitors: Axin 1; type: cell-based;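 note: compound exposure 20 to 22 hours before lysis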
Protocol: DLD1 cells were assayed for the effect of putative Tankyrase1/2 inhibitors on TNKS1/2, Axin1/2 and β-catenin protein levels. […] Reduction of nuclear accumulation of β-catenin and ultimately, reduction of β-catenin/TCF/LEF transcriptional activation of Wnt target genes should correlate with loss of Wnt-luc reporter signal in the Wnt reporter assay.
DLD1 cells were seeded in a 6-well dish at 10000 cells/well in DMEM supplemented with 10% FBS. […] After washing in TBS-T, the membrane was probed with a species specific secondary antibody conjugated to HRP (1:5000, Pierce/ThermoFisher), washed again in TBS-T and reacted with chemiluminescent detection reagents (ECL, GE Healthcare, cat. no. RPN2109) followed by exposure to X-ray film (FujiFilm XR).

DLD1 cells = experiment: Long-Term Clonogenic Assay (DLD1 cells); type: cell-based
Protocol: Clonogenic Inhibition in DLD1 or HT55 Cells
In order to determine the efficacy of chronic dosing of putative TNKS inhibitors, long term clonogenic or ‘colony formation’ assays were carried out. This included the sparse seeding of cells in a 6-well dish followed by continuous dosing of cells over 12-14 days (depending on relative cell growth). Appropriate cell lines (DLD1 or HT55) were seeded at 500 cells/well in a 6-well dish in DMEM supplemented with FBS. […] Dosages were carried out in triplicate. Cell media containing compound or DMSO only was replenished every 48 hours. Termination of the assay included the fixation of cells with trichlororacetic acid (1 mL, 10% (v/v), Sigma Aldrich, cat. no. T6399) and incubation for 16 hours at 4° C. Fixed cells were then washed with water, allowed to dry and stained with sulforhodamine B solution (sulforhodamine B 0.05% (w/v), Sigma Aldrich cat. no. S1402, acetic acid 1% (v/v), Fisher Scientific, cat. no. A/0400/PB17)) for 12 hours at room temperature. The stain was then removed and the cells washed copiously with aqueous acetic acid (1% v/v) and allowed to dry.
The data was normalised to the DMSO control and was expressed as surviving fraction as a function of inhibitor dose.

[2] = test system: TNKS stabilisation in HeLa, HT1080, HTC75 cells
Protocol: Cells were seeded, dosed and whole cell lysates were isolated and western blotted as described above. Primary antibodies included TNKS (1:1000, Santa Cruz Biotech, cat. no. SC8377).

[3] = test system: Wnt activity in DLD1-Wnt-Luc cells; experiment: Wnt-Luciferase Reporter Assay; conditions: read-out: Wnt IC50

SMILES | IC50 (TNKS1) | stabilize Axin1 (Western blotting) [1] | Clonogenic SF50 (DLD1) (DLD1 cells) | stabilize TNKS (Western blotting) [2] | IC50 [3]
Cc1cccc2c(=O)[nH]c(-c3ccc(N4CCN(C)CC4)nc3)cc12 [IQ-003] | 21 nM | stabilize Axin1 | < 2 µM | stabilize TNKS | 12 nM
CNCCOc1ccc(-c2cc3c(C)cccc3c(=O)[nH]2)cc1 [IQ-127, 5-Methyl-3-[4-(2-methylamino-ethoxy)-phenyl]-2H-isoquinolin-1-one] | < 50 nM | stabilize Axin1 | < 2 µM | stabilize TNKS | –
